Read-outs that look alike come from different tables or passages of the source.
What was measured:
[1] = Synovial fluid concentration of fluocinolone acetonide after FA screw implant in the stifle joint of sheep; assay type: in vivo, Ovis aries (Sheep); conditions: at three and eight weeks, FIG. 1
Excerpt: (§1) The objective of this study was to determine both the local and systemic pharmacokinetic profile of an intra-articular fluocinolone acetonide (FA screw) implant in the stifle joint of sheep. The animals underwent surgical implantation of the FA Screw test device in the stifle joint on Day 1. Following a recovery period, blood and synovial fluid were collected periodically for pharmacokinetic determination. Following completion of a 24 month observation period, the animals were euthanized and subjected to necropsy.
(§2) Devices were administered once via surgical implantation on Day 1.
(§3) The implant was a polymer-coated, sustained-release delivery system for Fluocinolone Acetonide (FA). The implant contained 55 mg of FA and was designed to deliver the drug for approximately 3 years. The tablet core contained approximately 55 mg of FA granulated with 10% PVA. The tablet core was positioned and adhered via an adhesive, such as a silicone adhesive, in the interchangeable head of the bone screw. The overall device geometry was that of a cancellous bone screw (i.e. the base) in which the head of the screw has been hollowed out to accept a removable cup (i.e. the payload) containing the drug tablet. In this embodiment, the screw was approximately 11/16″ in length and is no more than ¼″ at its widest point (i.e. the screw head), The payload was sized to fit into the screw and to accommodate the tablet. […]

[2] = Plasma concentration of fluocinolone acetonide after FA screw implant in the stifle joint of sheep; assay type: in vivo, Ovis aries (Sheep); conditions: intra-articular FA screw implants in the stifle joint, FIG. 1
Excerpt: as §1, §2, §3

[3] = Fluocinolone acetonide concentration in dog synovial fluid after intraarticular implants in knee joints; assay type: in vivo, Canis familiaris; conditions: for concentration at 3 day / concentration at 7 day / concentration at 21 day / concentration at 29 day / concentration at 56 day: dog, other: bilateral intraarticular implants (knee joints)
Method: Devices were administered once via bilateral intraarticular implants. The day of surgical implantation was Day 1. The devices were made as follows. Fluocinolone acetonide, USP, was compressed into 1.5 mm diameter tablets using standard pharmaceutical methods. The tablets were placed into preformed cups made from silicone elastomer. Cup size was dependent on dosage form. These cups were attached to […] (PVA) suture tabs. For the 2 mg implants, the surface of the tablet not coated with silicone was attached to a suture tab with PVA solution. For the […] implant, a side of the silicone cup was attached perpendicular to the suture tab. Finally, the assemblies were dip coated with PVA. The implants were then cured at 135° C. for 5 hours and placed within the primary package. The product in the primary package was placed in a self-adhesive pouch and sterilized using gamma irradiation. Surgery was performed on both knee joints of all animals. A lateral skin incision was made to expose the fascia lata overlying the vastus lateralis cranially and the biceps fernoris caudally. The joint was exposed through an incision in the lateral intermuscular septum to expose the femur by anterior retraction of the vastus lateralis and posterior retraction of the biceps femoris. Care was taken not to disrupt the tendon of origin of the long digital extensor as it originates from the lateral femoral condyle. The joint capsule was opened, the patella luxated medially, and the joint was held in full flexion. 2 mg devices were placed in the right leg and 18 mg implants were placed in the left leg. The implants were placed within the anterior intercondyloid fossa, immediately lateral to the origin of the posterior cruciate ligament. The bone may be slightly deepened at this location with a curette to accept the implant. The implant was sutured in place to the posterior cruciate ligament. The joint capsule was closed with 3/0 PDS in a simple interrupted fashion. The retinaculum and intermuscular septum were closed with 2/0 Vicryl in a continuous pattern. The fascia lata were closed with 2/0 PDS, and the subcutaneous tissues with 3/0 PDS, both in a simple continuous pattern. The skin was closed with 3/0 Vicryl in a subcuticular pattern. After anesthesia (acepromazine, 0.2 mg/kg. IM followed by sodium pentobarbital, 22 mg/kg, IV, to effect), an attempt was made to obtain synovial fluid. Syriovial fluid samples were immediately stored at ≦−70° C. in polypropylene tubes until transferred.

CC1(C)O[C@@H]2C[C@H]3[C@@H]4C[C@H](F)C5=CC(=O)C=C[C@]5(C)[C@@]4(F)[C@@H](O)C[C@]3(C)[C@]2(C(=O)CO)O1 [Fluocinolone Acetonide]
increase in FA concentrations in the synovial fluid [1]: three-fold increase
Plasma levels [2]: 0 to 0.35 ng/mL
Assayed Concentrations of Fluocinolone Acetonide in Dog Synovial Fluid Samples (Right Leg) ([3]; Right leg (2 mg devices), Dog 1001, Day 21): 7.27 ng/mL
Assayed Concentrations of Fluocinolone Acetonide in Dog Synovial Fluid Samples (Right Leg) ([3]; Right leg (2 mg devices), Dog 2001, Day 7): 98.4 ng/mL
Assayed Concentrations of Fluocinolone Acetonide in Dog Synovial Fluid Samples (Right Leg) ([3]; Right leg (2 mg devices), Dog 2002, Day 7): 47.7 ng/mL
Assayed Concentrations of Fluocinolone Acetonide in Dog Synovial Fluid Samples (Right Leg) ([3]; Right leg (2 mg devices), Dog 2002, Day 21): 144 ng/mL
Assayed Concentrations of Fluocinolone Acetonide in Dog Synovial Fluid Samples (Right Leg) ([3]; Right leg (2 mg devices), Dog 3001, Day 7): 171 ng/mL
Assayed Concentrations of Fluocinolone Acetonide in Dog Synovial Fluid Samples (Right Leg) ([3]; Right leg (2 mg devices), Dog 3001, Day 21): 51.5 ng/mL
Assayed Concentrations of Fluocinolone Acetonide in Dog Synovial Fluid Samples (Right Leg) ([3]; Right leg (2 mg devices), Dog 3002, Day 7): 8.30 ng/mL
concentration at 3 day ([3]; synovial fluid (left knee joint), 18 mg, Left leg (18 mg implants), Dog 1001, Day 3, read-out: Assayed Concentrations of Fluocinolone Acetonide in Dog Synovial Fluid Samples (Left Leg)): 656 ng/mL
concentration at 7 day ([3]; synovial fluid (left knee joint), 18 mg, Left leg (18 mg implants), Dog 1001, Day 7, read-out: Assayed Concentrations of Fluocinolone Acetonide in Dog Synovial Fluid Samples (Left Leg)): 290 ng/mL
concentration at 21 day ([3]; synovial fluid (left knee joint), 18 mg, Left leg (18 mg implants), Dog 1001, Day 21, read-out: Assayed Concentrations of Fluocinolone Acetonide in Dog Synovial Fluid Samples (Left Leg)): 1070 ng/mL
concentration at 29 day ([3]; synovial fluid (left knee joint), 18 mg, Left leg (18 mg implants), Dog 1001, Day 29, read-out: Assayed Concentrations of Fluocinolone Acetonide in Dog Synovial Fluid Samples (Left Leg)): 457 ng/mL
concentration at 56 day ([3]; synovial fluid (left knee joint), 18 mg, Left leg (18 mg implants), Dog 1001, Day 56, read-out: Assayed Concentrations of Fluocinolone Acetonide in Dog Synovial Fluid Samples (Left Leg)): 202000 ng/mL
concentration at 3 day ([3]; synovial fluid (left knee joint), 18 mg, Left leg (18 mg implants), Dog 1002, Day 3, read-out: Assayed Concentrations of Fluocinolone Acetonide in Dog Synovial Fluid Samples (Left Leg)): 357 ng/mL
concentration at 7 day ([3]; synovial fluid (left knee joint), 18 mg, Left leg (18 mg implants), Dog 1002, Day 7, read-out: Assayed Concentrations of Fluocinolone Acetonide in Dog Synovial Fluid Samples (Left Leg)): 405 ng/mL
concentration at 21 day ([3]; synovial fluid (left knee joint), 18 mg, Left leg (18 mg implants), Dog 1002, Day 21, read-out: Assayed Concentrations of Fluocinolone Acetonide in Dog Synovial Fluid Samples (Left Leg)): 373 ng/mL
concentration at 29 day ([3]; synovial fluid (left knee joint), 18 mg, Left leg (18 mg implants), Dog 1002, Day 29, read-out: Assayed Concentrations of Fluocinolone Acetonide in Dog Synovial Fluid Samples (Left Leg)): 379 ng/mL
concentration at 56 day ([3]; synovial fluid (left knee joint), 18 mg, Left leg (18 mg implants), Dog 1002, Day 56, read-out: Assayed Concentrations of Fluocinolone Acetonide in Dog Synovial Fluid Samples (Left Leg)): 541 ng/mL
concentration at 3 day ([3]; synovial fluid (left knee joint), 18 mg, Left leg (18 mg implants), Dog 2001, Day 3, read-out: Assayed Concentrations of Fluocinolone Acetonide in Dog Synovial Fluid Samples (Left Leg)): 89 ng/mL
concentration at 7 day ([3]; synovial fluid (left knee joint), 18 mg, Left leg (18 mg implants), Dog 2001, Day 7, read-out: Assayed Concentrations of Fluocinolone Acetonide in Dog Synovial Fluid Samples (Left Leg)): 194 ng/mL
concentration at 29 day ([3]; synovial fluid (left knee joint), 18 mg, Left leg (18 mg implants), Dog 2001, Day 29, read-out: Assayed Concentrations of Fluocinolone Acetonide in Dog Synovial Fluid Samples (Left Leg)): 57.8 ng/mL
concentration at 3 day ([3]; synovial fluid (left knee joint), 18 mg, Left leg (18 mg implants), Dog 2002, Day 3, read-out: Assayed Concentrations of Fluocinolone Acetonide in Dog Synovial Fluid Samples (Left Leg)): 193 ng/mL
concentration at 7 day ([3]; synovial fluid (left knee joint), 18 mg, Left leg (18 mg implants), Dog 2002, Day 7, read-out: Assayed Concentrations of Fluocinolone Acetonide in Dog Synovial Fluid Samples (Left Leg)): 279 ng/mL
concentration at 21 day ([3]; synovial fluid (left knee joint), 18 mg, Left leg (18 mg implants), Dog 2002, Day 21, read-out: Assayed Concentrations of Fluocinolone Acetonide in Dog Synovial Fluid Samples (Left Leg)): 393 ng/mL
concentration at 29 day ([3]; synovial fluid (left knee joint), 18 mg, Left leg (18 mg implants), Dog 2002, Day 29, read-out: Assayed Concentrations of Fluocinolone Acetonide in Dog Synovial Fluid Samples (Left Leg)): 956 ng/mL
concentration at 3 day ([3]; synovial fluid (left knee joint), 18 mg, Left leg (18 mg implants), Dog 3001, Day 3, read-out: Assayed Concentrations of Fluocinolone Acetonide in Dog Synovial Fluid Samples (Left Leg)): 788 ng/mL
concentration at 7 day ([3]; synovial fluid (left knee joint), 18 mg, Left leg (18 mg implants), Dog 3001, Day 7, read-out: Assayed Concentrations of Fluocinolone Acetonide in Dog Synovial Fluid Samples (Left Leg)): 35300 ng/mL
concentration at 21 day ([3]; synovial fluid (left knee joint), 18 mg, Left leg (18 mg implants), Dog 3001, Day 21, read-out: Assayed Concentrations of Fluocinolone Acetonide in Dog Synovial Fluid Samples (Left Leg)): 5180 ng/mL
concentration at 56 day ([3]; synovial fluid (left knee joint), 18 mg, Left leg (18 mg implants), Dog 3001, Day 56, read-out: Assayed Concentrations of Fluocinolone Acetonide in Dog Synovial Fluid Samples (Left Leg)): 36.9 ng/mL
concentration at 3 day ([3]; synovial fluid (left knee joint), 18 mg, Left leg (18 mg implants), Dog 3002, Day 3, read-out: Assayed Concentrations of Fluocinolone Acetonide in Dog Synovial Fluid Samples (Left Leg)): 207 ng/mL
concentration at 7 day ([3]; synovial fluid (left knee joint), 18 mg, Left leg (18 mg implants), Dog 3002, Day 7, read-out: Assayed Concentrations of Fluocinolone Acetonide in Dog Synovial Fluid Samples (Left Leg)): 251 ng/mL
concentration at 21 day ([3]; synovial fluid (left knee joint), 18 mg, Left leg (18 mg implants), Dog 3002, Day 21, read-out: Assayed Concentrations of Fluocinolone Acetonide in Dog Synovial Fluid Samples (Left Leg)): 276 ng/mL
concentration at 29 day ([3]; synovial fluid (left knee joint), 18 mg, Left leg (18 mg implants), Dog 3002, Day 29, read-out: Assayed Concentrations of Fluocinolone Acetonide in Dog Synovial Fluid Samples (Left Leg)): 210 ng/mL
concentration at 3 day ([3]; synovial fluid (right knee joint), 2 mg, Right leg (2 mg devices), Dog 1001, Day 3, read-out: Assayed Concentrations of Fluocinolone Acetonide in Dog Synovial Fluid Samples (Right Leg)): 52 ng/mL
concentration at 7 day ([3]; synovial fluid (right knee joint), 2 mg, Right leg (2 mg devices), Dog 1001, Day 7, read-out: Assayed Concentrations of Fluocinolone Acetonide in Dog Synovial Fluid Samples (Right Leg)): 62.4 ng/mL
concentration at 56 day ([3]; synovial fluid (right knee joint), 2 mg, Right leg (2 mg devices), Dog 1001, Day 56, read-out: Assayed Concentrations of Fluocinolone Acetonide in Dog Synovial Fluid Samples (Right Leg)): 19.3 ng/mL
concentration at 3 day ([3]; synovial fluid (right knee joint), 2 mg, Right leg (2 mg devices), Dog 1002, Day 3, read-out: Assayed Concentrations of Fluocinolone Acetonide in Dog Synovial Fluid Samples (Right Leg)): 36.6 ng/mL
concentration at 3 day ([3]; synovial fluid (right knee joint), 2 mg, Right leg (2 mg devices), Dog 2001, Day 3, read-out: Assayed Concentrations of Fluocinolone Acetonide in Dog Synovial Fluid Samples (Right Leg)): 600 ng/mL
concentration at 3 day ([3]; synovial fluid (right knee joint), 2 mg, Right leg (2 mg devices), Dog 2002, Day 3, read-out: Assayed Concentrations of Fluocinolone Acetonide in Dog Synovial Fluid Samples (Right Leg)): 24.4 ng/mL
concentration at 3 day ([3]; synovial fluid (right knee joint), 2 mg, Right leg (2 mg devices), Dog 3001, Day 3, read-out: Assayed Concentrations of Fluocinolone Acetonide in Dog Synovial Fluid Samples (Right Leg)): 57.9 ng/mL
concentration at 29 day ([3]; synovial fluid (right knee joint), 2 mg, Right leg (2 mg devices), Dog 3001, Day 29, read-out: Assayed Concentrations of Fluocinolone Acetonide in Dog Synovial Fluid Samples (Right Leg)): 16.4 ng/mL
concentration at 3 day ([3]; synovial fluid (right knee joint), 2 mg, Right leg (2 mg devices), Dog 3002, Day 3, read-out: Assayed Concentrations of Fluocinolone Acetonide in Dog Synovial Fluid Samples (Right Leg)): 40.7 ng/mL
concentration at 29 day ([3]; synovial fluid (right knee joint), 2 mg, Right leg (2 mg devices), Dog 3002, Day 29, read-out: Assayed Concentrations of Fluocinolone Acetonide in Dog Synovial Fluid Samples (Right Leg)): 7.86 ng/mL

— US6936270B2, “Device and method for treating conditions of a joint” (Control Delivery Systems, Inc., priority 2000, dated 2005)
